In patent publication US10166216B2 (Rigel Pharmaceuticals, Inc., priority 2006, dated 2019):

Molecular target: Axl (Homo sapiens (Human), UniProt P30530)
Test: Phospho-Akt in-cell Western assay (Axl-antibody cross-linking stimulation)
Format: cell-based
Conditions: inhibition of Axl activity, Hela cells, phospho-Akt readout; Table 1, formula (Ia1)
Description: The working solution: dilute the stock 1:20 with PBS immediately before use. • 10% SDS: working solution: 5% SDS (sodium dodecylsulfate), diluted in PBS Methods: Day 1:
A 96 well TC (tissue culture treated) plate was coated with 10 μg/mL poly-L-Lysine at 37° C. for 30 min, washed twice with PBS, and air-dried for 5 minutes before cells were added. Hela cells were seeded at 10,000 cells/well and the cells were starved in 100 μL starvation medium containing Axl/Fc for 24 hrs.
The cells were pre-treated with test compounds by adding 100 μL of 2× test compound to the starvation medium on the cells. The cells were incubated at 37° C. for 1 hr before stimulation.
The resulting mix was warmed to 37° C. 50 μL of 5× Axl 1st/2nd of antibody cluster was added to the cells and the cells were incubated at 37° C. for 5 min.
After 5 minutes stimulation, the plate was flicked to remove medium and the plate was tapped onto paper towels. Formaldehyde (4.0% in PBS, 100 μL) was added to fix the cells and the cells were incubated at ambient temperature for 20 min without shaking.
The cells were washed with a plate washer buffer to remove the formaldehyde solution. The plate was flicked to removed excess wash buffer and tapped onto paper towels. Quenching buffer (100 μL) was added to each well and the cells were incubated at ambient temperature for 20 minutes without shaking.
The cells were washed with a plate washer buffer to remove the quenching buffer. Blocking buffer (100 μL) was added and the cells were incubated at ambient temperature for at least an hour with gentle shaking.
The cells were washed with a plate washer buffer and diluted primary antibody (50 μL) was added to each well (blocking buffer was added to the negative control wells instead). The plates were incubated overnight at 4° C. with gentle shaking.
The wash buffer was removed, diluted secondary antibody (100 μL) was added, and the cells were incubated at ambient temperature for 1 hour with gentle shaking. During the incubation, the chemiluminescent reagent was brought to ambient temperature.
The secondary antibody was removed by washing the cells 1× with wash buffer, 1× with PBS by plate washer. The PBS was removed from the plate and the chemiluminescent reagent (80 μL: 40 μL A and 40 μL B) was added to each well at ambient temperature.
The resulting chemiluminescence was read with a Luminomitor within 10 minutes to minimize changes in signal intensity. […] The plate was tapped onto paper towels to remove excess liquid from wells and air-dried at ambient temperature for 5 minutes.
Crystal Violet working solution (60 μL) was added to each well and the cells were incubated at ambient temperature for 30 min. The crystal violet solution was removed, and the wells were rinsed with PBS, then washed 3× with PBS (200 μL) for 5 minutes each.
5% SDS solution (70 μL) was added to each well and the cells were incubated on a shaker for 30 min at ambient temperature.
This relative cell number was then used to normalize each luminescence reading. […]

Axl, sequence (P30530 26-894): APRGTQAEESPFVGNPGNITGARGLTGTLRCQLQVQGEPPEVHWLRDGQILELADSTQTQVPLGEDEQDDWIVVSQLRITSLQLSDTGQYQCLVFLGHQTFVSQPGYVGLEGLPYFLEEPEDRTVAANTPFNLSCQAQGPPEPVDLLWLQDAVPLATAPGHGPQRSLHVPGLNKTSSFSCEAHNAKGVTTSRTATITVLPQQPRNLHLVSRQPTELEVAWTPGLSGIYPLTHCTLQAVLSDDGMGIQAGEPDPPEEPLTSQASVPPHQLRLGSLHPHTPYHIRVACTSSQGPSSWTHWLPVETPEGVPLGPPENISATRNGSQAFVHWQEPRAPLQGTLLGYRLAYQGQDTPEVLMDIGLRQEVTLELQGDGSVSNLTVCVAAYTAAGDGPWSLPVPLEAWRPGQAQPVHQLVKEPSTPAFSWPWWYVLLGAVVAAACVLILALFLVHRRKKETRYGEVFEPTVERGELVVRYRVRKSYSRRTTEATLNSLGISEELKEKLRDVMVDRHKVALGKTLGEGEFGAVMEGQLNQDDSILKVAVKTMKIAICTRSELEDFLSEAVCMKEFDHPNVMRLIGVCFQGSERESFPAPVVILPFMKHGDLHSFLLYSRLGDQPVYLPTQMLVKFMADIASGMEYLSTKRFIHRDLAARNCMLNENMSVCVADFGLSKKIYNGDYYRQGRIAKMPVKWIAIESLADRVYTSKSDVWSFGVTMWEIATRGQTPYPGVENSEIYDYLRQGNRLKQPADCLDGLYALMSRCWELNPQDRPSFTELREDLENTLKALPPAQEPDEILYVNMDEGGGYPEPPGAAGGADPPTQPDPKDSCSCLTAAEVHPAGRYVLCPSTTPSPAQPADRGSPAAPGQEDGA

| IC50 | SMILES |
| --- | --- |
| < 1000 nM | Nc1nc(Nc2ccc(OCCN3CCCC3)cc2)nn1-c1ncnc2sc3c(c12)CCC3 [Compound 66, 1-(6,7-dihydro-5H-cyclopenta[4,5]thieno[2,3-d]pyrimidin-4-yl)-N^3-(4-(2-(pyrrolidin-1-yl)ethoxy)phenyl)-1H-1,2,4-triazole-3,5-diamine] |
| > 20000 nM | CNc1nc(Nc2ccc(OCCN3CCCC3)cc2)nn1-c1ccccn1 [Compound 6, N^5-methyl-1-(pyridin-2-yl)-N^3-(4-(2-(pyrrolidin-1-yl)ethoxy)phenyl)-1H-1,2,4-triazole-3,5-diamine] |
| < 1000 nM | Nc1nc(Nc2ccc(OCCN3CCCC3)cc2)nn1-c1cc2c(nn1)-c1ccccc1CC2 [Compound 75, 1-(5,6-dihydrobenzo[h]cinnolin-3-yl)-N^3-(4-(2-(pyrrolidin-1-yl)ethoxy)phenyl)-1H-1,2,4-triazole-3,5-diamine] |
| > 20000 nM | Cc1cc(O)nc(-n2nc(Nc3ccc(OCCN4CCCC4)cc3)nc2N)n1 [Compound 42, 2-(5-amino-3-(4-(2-(pyrrolidin-1-yl)ethoxy)phenylamino)-1H-1,2,4-triazol-1-yl)-6-methylpyrimidin-4-ol] |

Same assay, conditions: inhibition of Axl activity, Hela cells, phospho-Akt readout; Table 4, formula (Ib2)

| IC50 | SMILES |
| --- | --- |
| < 1000 nM | COc1cc2ncnc(-n3nc(N)nc3Nc3ccc(N4CCN(C5CCCCC5)CC4)cc3)c2cc1OC [Compound 83, N^5-(4-(4-cyclohexylpiperazin-1-yl)phenyl)-1-(6,7-dimethoxyquinazolin-4-yl)-1H-1,2,4-triazole-3,5-diamine] |

Same assay, conditions: inhibition of Axl activity, Hela cells, phospho-Akt readout; Table 5, formula (Ia3)

| IC50 | SMILES |
| --- | --- |
| < 1000 nM | Cc1csc2c(-n3nc(Nc4ccc(C(=O)NCCN5CCCC5)cc4)nc3N)nc(Cl)nc12 [Compound 208, 1-(7-methyl-2-chlorothieno[3,2-d]pyrimidin-4-yl)-N^3-(4-((2-(pyrrolidin-1-yl)ethyl)aminocarbonyl)phenyl)-1H-1,2,4-triazole-3,5-diamine] |
| < 1000 nM | CN(C)[C@@H]1CCN(c2ccc(Nc3nc(N)n(-c4nccc5ccccc45)n3)cc2)C1 [Compound 164, N^3-(4-((R)-3-(dimethylamino)pyrrolidin-1-yl)phenyl)-1-(isoquinolin-1-yl)-1H-1,2,4-triazole-3,5-diamine] |
| < 1000 nM | COc1cc2ncnc(-n3nc(Nc4ccc(OC5CCCN(C)C5)cc4)nc3N)c2cc1OC (stereo not drawn) [Compound 153, 1-(6,7-dimethoxyquinazolin-4-yl)-N^3-(4-(1-methylpiperidin-3-yloxy)phenyl)-1H-1,2,4-triazole-3,5-diamine] |

Same assay, conditions: inhibition of Axl activity, phospho-Akt in-cell Western assay

| SMILES | IC50 |
| --- | --- |
| Nc1nc(Nc2ccc(N3CCN([C@H]4C[C@@H]5CC[C@H]4C5)CC3)c(F)c2)nn1-c1ccc(-c2ccccc2)nn1 [Compound 229, 1-(6-phenylpyridazin-3-yl)-N^3-(3-fluoro-4-(4-((1S,2S,4R)-bicyclo[2.2.1]heptan-2-yl)piperazin-1-yl)phenyl)-1H-1,2,4-triazole-3,5-diamine] | 1000 to 10000 nM |
| Nc1nc(Nc2ccc(N3CCN([C@H]4C[C@@H]5CC[C@H]4C5)CC3)cc2)nn1-c1ncnc2sccc12 [Compound 190, 1-(thieno[2,3-d]pyrimidin-4-yl)-N^3-(4-(4-((1S,2S,4R)-bicyclo[2.2.1]heptan-2-yl)-piperazin-1-yl)phenyl)-1H-1,2,4-triazole-3,5-diamine] | < 1000 nM |

Second part, the compound after the results:

| IC50 | SMILES |
| --- | --- |
| < 1000 nM | Cc1csc2c(-n3nc(Nc4ccc(N5CCN([C@H]6C[C@@H]7CC[C@H]6C7)[C@H](C)C5)c(F)c4)nc3N)ncnc12 [Compound 250, 1-(7-methylthieno[3,2-d]pyrimidin-4-yl)-N^3-(3-fluoro-4-(3-(R)-methyl-4-((1S,2S,4R)-bicyclo[2.2.1]heptan-2-yl)piperazin-1-yl)phenyl)-1H-1,2,4-triazole-3,5-diamine] |
| 1000 to 10000 nM | COc1cc2ncnc(-n3nc(Nc4ccc(N5CCN(C6C7CCCC6CCC7)CC5)cc4)nc3N)c2cc1OC (stereo not drawn) [Compound 118, N^3-(4-(4-(bicyclo[3.3.1]nonan-9-yl)piperazin-1-yl)phenyl)-1-(6,7-dimethoxyquinazolin-4-yl)-1H-1,2,4-triazole-3,5-diamine] |
